Experimental data reported in article PMC12454493, “Insight on novel sulfamoylphenyl pyrazole derivatives as anticancer carbonic anhydrase inhibitors” (Molecular Diversity, 2024).

Legend:
HCC-2998 = assay: NCI-60 one-dose SRB screen (Colon Cancer); format: cell-based; settings: Homo sapiens, single dose 10 µM, 48 h, read-out: Growth inhibition percent (GI %)
HCT-15 = assay: NCI-60 one-dose SRB screen (Colon Cancer); format: cell-based; settings: Homo sapiens, single dose 10 µM, 48 h, read-out: Growth inhibition percent (GI %)
KM12 = assay: NCI-60 one-dose SRB screen (Colon Cancer); format: cell-based; settings: Homo sapiens, single dose 10 µM, 48 h, read-out: Growth inhibition percent (GI %)
HT29 = assay: NCI-60 one-dose SRB screen (Colon Cancer); format: cell-based; settings: Homo sapiens, HT-29, single dose 10 µM, 48 h, read-out: Growth inhibition percent (GI %)
SW-620 = assay: NCI-60 one-dose SRB screen (Colon Cancer); format: cell-based; settings: Homo sapiens, single dose 10 µM, 48 h, read-out: Growth inhibition percent (GI %)
COLO 205 = assay: NCI-60 one-dose SRB screen (Colon Cancer); format: cell-based; settings: Homo sapiens, single dose 10 µM, 48 h, read-out: Growth inhibition percent (GI %)
HCT-116 = assay: NCI-60 one-dose SRB screen (Colon Cancer); format: cell-based; settings: Homo sapiens, single dose 10 µM, 48 h, read-out: Growth inhibition percent (GI %)
SNB-19 = assay: NCI-60 one-dose SRB screen (CNS Cancer); format: cell-based; settings: Homo sapiens, single dose 10 µM, 48 h, read-out: Growth inhibition percent (GI %)
SF-295 = assay: NCI-60 one-dose SRB screen (CNS Cancer); format: cell-based; settings: Homo sapiens, single dose 10 µM, 48 h, read-out: Growth inhibition percent (GI %)
SF-268 = assay: NCI-60 one-dose SRB screen (CNS Cancer); format: cell-based; settings: Homo sapiens, single dose 10 µM, 48 h, read-out: Growth inhibition percent (GI %)
SF-539 = assay: NCI-60 one-dose SRB screen (CNS Cancer); format: cell-based; settings: Homo sapiens, single dose 10 µM, 48 h, read-out: Growth inhibition percent (GI %)
U251 = assay: NCI-60 one-dose SRB screen (CNS Cancer); format: cell-based; settings: Homo sapiens, U-251, single dose 10 µM, 48 h, read-out: Growth inhibition percent (GI %)
SNB-75 = assay: NCI-60 one-dose SRB screen (CNS Cancer); format: cell-based; settings: Homo sapiens, single dose 10 µM, 48 h, read-out: Growth inhibition percent (GI %)
TK-10 = assay: NCI-60 one-dose SRB screen (Renal Cancer); format: cell-based; settings: Homo sapiens, single dose 10 µM, 48 h, read-out: Growth inhibition percent (GI %)
ACHN = assay: NCI-60 one-dose SRB screen (Renal Cancer); format: cell-based; settings: Homo sapiens, single dose 10 µM, 48 h, read-out: Growth inhibition percent (GI %)
SN12C = assay: NCI-60 one-dose SRB screen (Renal Cancer); format: cell-based; settings: Homo sapiens, single dose 10 µM, 48 h, read-out: Growth inhibition percent (GI %)
CAKI-1 = assay: NCI-60 one-dose SRB screen (Renal Cancer); format: cell-based; settings: Homo sapiens, single dose 10 µM, 48 h, read-out: Growth inhibition percent (GI %)
UO-31 = assay: NCI-60 one-dose SRB screen (Renal Cancer); format: cell-based; settings: Homo sapiens, single dose 10 µM, 48 h, read-out: Growth inhibition percent (GI %)
786-0 = assay: NCI-60 one-dose SRB screen (Renal Cancer); format: cell-based; settings: Homo sapiens, single dose 10 µM, 48 h, read-out: Growth inhibition percent (GI %)
RXF 393 = assay: NCI-60 one-dose SRB screen (Renal Cancer); format: cell-based; settings: Homo sapiens, single dose 10 µM, 48 h, read-out: Growth inhibition percent (GI %)
A498 = assay: NCI-60 one-dose SRB screen (Renal Cancer); format: cell-based; settings: Homo sapiens, single dose 10 µM, 48 h, read-out: Growth inhibition percent (GI %)
hCA IX = hCA IX (Homo sapiens, UniProt Q16790); assay: CA inhibitory activity, spectrophotometric p-NPA assay; format: biochemical; settings: p-NPA substrate, pH 7.5, 25 °C, triplicate; read-out: IC50 (µM) ± SD hCA IX
CCRF-CEM = assay: NCI-60 one-dose SRB screen (Leukemia); format: cell-based; settings: Homo sapiens, single dose 10 µM, 48 h, read-out: Growth inhibition percent (GI %)
SR = assay: NCI-60 one-dose SRB screen (Leukemia); format: cell-based; settings: Homo sapiens, single dose 10 µM, 48 h, read-out: Growth inhibition percent (GI %)
RPMI-8226 = assay: NCI-60 one-dose SRB screen (Leukemia); format: cell-based; settings: Homo sapiens, single dose 10 µM, 48 h, read-out: Growth inhibition percent (GI %)
MOLT-4 = assay: NCI-60 one-dose SRB screen (Leukemia); format: cell-based; settings: Homo sapiens, single dose 10 µM, 48 h, read-out: Growth inhibition percent (GI %)
K-562 = assay: NCI-60 one-dose SRB screen (Leukemia); format: cell-based; settings: Homo sapiens, K562, single dose 10 µM, 48 h, read-out: Growth inhibition percent (GI %)
HL-60(TB) = assay: NCI-60 one-dose SRB screen (Leukemia); format: cell-based; settings: Homo sapiens, single dose 10 µM, 48 h, read-out: Growth inhibition percent (GI %)
NCI-H226 = assay: NCI-60 one-dose SRB screen (Non-Small Cell Lung Cancer); format: cell-based; settings: Homo sapiens, single dose 10 µM, 48 h, read-out: Growth inhibition percent (GI %)
A549/ATCC = assay: as above; format: cell-based; settings: Homo sapiens, single dose 10 µM, 48 h, read-out: Growth inhibition percent (GI %)
HOP-92 = assay: as above; format: cell-based; settings: Homo sapiens, single dose 10 µM, 48 h, read-out: Growth inhibition percent (GI %)
EKVX = assay: as above; format: cell-based; settings: Homo sapiens, single dose 10 µM, 48 h, read-out: Growth inhibition percent (GI %)
NCI-H322M = assay: as above; format: cell-based; settings: Homo sapiens, single dose 10 µM, 48 h, read-out: Growth inhibition percent (GI %)
NCI-H23 = assay: as above; format: cell-based; settings: Homo sapiens, single dose 10 µM, 48 h, read-out: Growth inhibition percent (GI %)
HOP-62 = assay: as above; format: cell-based; settings: Homo sapiens, single dose 10 µM, 48 h, read-out: Growth inhibition percent (GI %)
NCI-H460 = assay: as above; format: cell-based; settings: Homo sapiens, single dose 10 µM, 48 h, read-out: Growth inhibition percent (GI %)
NCI-H522 = assay: as above; format: cell-based; settings: Homo sapiens, single dose 10 µM, 48 h, read-out: Growth inhibition percent (GI %)
hCA XII = hCA XII (Homo sapiens, UniProt O43570); assay: CA inhibitory activity, spectrophotometric p-NPA assay; format: biochemical; settings: p-NPA substrate, pH 7.5, 25 °C, triplicate; read-out: IC50 (µM) ± SD hCA XII
hCA XII, sequence (O43570 25-354): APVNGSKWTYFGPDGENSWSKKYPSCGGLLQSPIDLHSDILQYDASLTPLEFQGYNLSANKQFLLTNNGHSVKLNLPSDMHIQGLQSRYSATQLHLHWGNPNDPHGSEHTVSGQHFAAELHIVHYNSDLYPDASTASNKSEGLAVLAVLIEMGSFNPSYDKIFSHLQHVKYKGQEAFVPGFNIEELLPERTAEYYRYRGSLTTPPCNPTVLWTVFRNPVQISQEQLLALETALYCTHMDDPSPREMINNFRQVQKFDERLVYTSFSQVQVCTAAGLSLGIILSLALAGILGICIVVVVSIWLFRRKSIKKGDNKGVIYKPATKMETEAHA

SK-MEL-28 = assay: NCI-60 one-dose SRB screen (Melanoma); format: cell-based; settings: Homo sapiens, single dose 10 µM, 48 h, read-out: Growth inhibition percent (GI %)
MALME-3M = assay: NCI-60 one-dose SRB screen (Melanoma); format: cell-based; settings: Homo sapiens, single dose 10 µM, 48 h, read-out: Growth inhibition percent (GI %)
SK-MEL-2 = assay: NCI-60 one-dose SRB screen (Melanoma); format: cell-based; settings: Homo sapiens, single dose 10 µM, 48 h, read-out: Growth inhibition percent (GI %)
MDA-MB-435 = assay: NCI-60 one-dose SRB screen (Melanoma); format: cell-based; settings: Homo sapiens, single dose 10 µM, 48 h, read-out: Growth inhibition percent (GI %)
UACC-62 = assay: NCI-60 one-dose SRB screen (Melanoma); format: cell-based; settings: Homo sapiens, single dose 10 µM, 48 h, read-out: Growth inhibition percent (GI %)
UACC-257 = assay: NCI-60 one-dose SRB screen (Melanoma); format: cell-based; settings: Homo sapiens, single dose 10 µM, 48 h, read-out: Growth inhibition percent (GI %)
M14 = assay: NCI-60 one-dose SRB screen (Melanoma); format: cell-based; settings: Homo sapiens, single dose 10 µM, 48 h, read-out: Growth inhibition percent (GI %)
SK-MEL-5 = assay: NCI-60 one-dose SRB screen (Melanoma); format: cell-based; settings: Homo sapiens, single dose 10 µM, 48 h, read-out: Growth inhibition percent (GI %)

In the case of `CCOC(=O)c1ccc(NC(=O)COC(=O)c2cn(-c3ccc(S(N)(=O)=O)cc3)nc2-c2ccc(Br)cc2)cc1` [Compound 5d, 2-[(4-(Ethoxycarbonyl)phenyl)amino]-2-oxoethyl 3-(4-bromophenyl)-1-(4-sulfamoylphenyl)-1H-pyrazole-4-carboxylate], the inhibition at 10 µM (HCC-2998) is reported as 54.3%, the inhibition at 10 µM (HCT-15) is reported as 76.4% and the inhibition at 10 µM (KM12) is reported as 76.7%. For the same compound, the inhibition at 10 µM (HT29) was 88.3%, the inhibition at 10 µM (SW-620) was 50.6% and the inhibition at 10 µM (COLO 205) was 61.2%. It also gave an inhibition at 10 µM (HCT-116) of 73.6%, an inhibition at 10 µM (SNB-19) of 57.9% and an inhibition at 10 µM (SF-295) of 57.5%. For the same compound, the inhibition at 10 µM (SF-268) was 64.1%, the inhibition at 10 µM (SF-539) was 63.3% and the inhibition at 10 µM (U251) was 57.9%. For the same compound, the inhibition at 10 µM (SNB-75) was 74.9%, the inhibition at 10 µM (TK-10) was 18.4% and the inhibition at 10 µM (ACHN) was 66%. It also gave an inhibition at 10 µM (SN12C) of 47.1%, an inhibition at 10 µM (CAKI-1) of 81.9% and an inhibition at 10 µM (UO-31) of 58.9%. The inhibition at 10 µM (786-0) was 74.9%, the inhibition at 10 µM (RXF 393) was 82.8% and the inhibition at 10 µM (A498) was 20.6%. For the same compound, the IC50 (hCA IX) was 0.631 ± 0.029 µM, the inhibition at 10 µM (CCRF-CEM) was 85.8% and the inhibition at 10 µM (SR) was 80.1%. It also gave an inhibition at 10 µM (RPMI-8226) of 80.3%, an inhibition at 10 µM (MOLT-4) of 94% and an inhibition at 10 µM (K-562) of 80.4%. For the same compound, the inhibition at 10 µM (HL-60(TB)) was 89.4%, the inhibition at 10 µM (NCI-H226) was 48.3% and the inhibition at 10 µM (A549/ATCC) was 62.9%. It also gave an inhibition at 10 µM (HOP-92) of 72.1%, an inhibition at 10 µM (EKVX) of 62.5% and an inhibition at 10 µM (NCI-H322M) of 21.2%. The inhibition at 10 µM (NCI-H23) was 49.4%, the inhibition at 10 µM (HOP-62) was 26.2% and the inhibition at 10 µM (NCI-H460) was 65.7%. It also gave an inhibition at 10 µM (NCI-H522) of 64.9%, an IC50 (hCA XII) of 0.99 ± 0.037 µM and an inhibition at 10 µM (SK-MEL-28) of 55.6%. It also gave an inhibition at 10 µM (MALME-3M) of 46.1%, an inhibition at 10 µM (SK-MEL-2) of 49.1% and an inhibition at 10 µM (MDA-MB-435) of 61.2%. It also gave an inhibition at 10 µM (UACC-62) of 58.7%, an inhibition at 10 µM (UACC-257) of 38.3% and an inhibition at 10 µM (M14) of 73.7%. The inhibition at 10 µM (SK-MEL-5) was 36.3%.
